Source: ChEMBL document CHEMBL5143678, “Identification of Antithrombotic Natural Products Targeting the Major Substrate Binding Pocket of Protein Disulfide Isomerase” (J Nat Prod, 2022)
The source made the active and inactive calls. No cut-off for these calls is given here.

Experiments:
[1] = molecular target: T1, Protein disulfide-isomerase (Homo sapiens, UniProt P07237); experiment: Binding affinity to recombinant His-tagged full length human PDI-b' x domain substrate binding pocket expressed in Escherichia coli BL21 (DE3) cells assessed as decrease in fluorescence intensity at 100 uM incubated for 10 mins by tryptophan fluorescence based assay
Target sequence in this assay (P07237 18-508 limits assumed): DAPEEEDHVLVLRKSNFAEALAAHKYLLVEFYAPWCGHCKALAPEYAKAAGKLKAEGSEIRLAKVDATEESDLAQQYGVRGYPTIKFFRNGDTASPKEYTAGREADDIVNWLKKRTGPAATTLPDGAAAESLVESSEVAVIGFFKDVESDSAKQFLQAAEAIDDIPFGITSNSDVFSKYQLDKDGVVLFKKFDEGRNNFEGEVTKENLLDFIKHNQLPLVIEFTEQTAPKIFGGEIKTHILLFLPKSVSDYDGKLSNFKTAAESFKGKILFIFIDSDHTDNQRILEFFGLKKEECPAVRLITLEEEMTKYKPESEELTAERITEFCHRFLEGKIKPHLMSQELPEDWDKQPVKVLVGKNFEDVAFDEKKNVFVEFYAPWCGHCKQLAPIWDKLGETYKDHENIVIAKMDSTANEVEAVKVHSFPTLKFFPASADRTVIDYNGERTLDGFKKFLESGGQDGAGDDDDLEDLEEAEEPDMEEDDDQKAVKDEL

[2] = molecular target: T1, Protein disulfide-isomerase; experiment: Inhibition of recombinant His-tagged full length human PDI reductase activity assessed as inhibition of PDI/DTT-mediated cleavage of disulfide bond in insulin at 100 uM incubated for 40 mins by spectrophotometric analysis
Target sequence in this assay (P07237 18-508 limits assumed): as above

[3] = molecular target: T1, Protein disulfide-isomerase; experiment: Binding affinity to recombinant His-tagged full length human PDI-b' x domain substrate binding pocket expressed in Escherichia coli BL21 (DE3) cells assessed as inhibition constant at 100 uM incubated for 10 mins by tryptophan fluorescence based assay
Target sequence in this assay (P07237 whole entry): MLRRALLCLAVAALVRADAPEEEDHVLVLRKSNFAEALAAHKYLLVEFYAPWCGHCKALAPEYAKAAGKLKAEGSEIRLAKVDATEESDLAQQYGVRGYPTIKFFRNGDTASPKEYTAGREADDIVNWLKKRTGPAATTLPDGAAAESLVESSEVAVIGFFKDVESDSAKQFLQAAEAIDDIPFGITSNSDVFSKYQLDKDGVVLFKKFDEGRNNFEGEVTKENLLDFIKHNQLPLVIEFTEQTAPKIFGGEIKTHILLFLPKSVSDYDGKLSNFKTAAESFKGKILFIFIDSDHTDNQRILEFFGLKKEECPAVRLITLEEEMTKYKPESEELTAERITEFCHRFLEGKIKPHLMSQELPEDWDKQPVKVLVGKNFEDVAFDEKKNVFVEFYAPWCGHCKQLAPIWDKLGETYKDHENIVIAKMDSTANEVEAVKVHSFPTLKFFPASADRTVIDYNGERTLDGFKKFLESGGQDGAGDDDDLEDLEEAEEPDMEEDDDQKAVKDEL

[4] = molecular target: T1, Protein disulfide-isomerase; experiment: Inhibition of recombinant His-tagged full length human PDI reductase activity assessed as inhibition of PDI/DTT-mediated cleavage of disulfide bond in insulin in the presence of DTT incubated for 40 mins by spectrophotometric analysis; details: dose 100-200 µM, DDE = dose-dependent effect
Target sequence in this assay (P07237 18-508 limits assumed): as the sequence (P07237 18-508 limits assumed) above

[5] = molecular target: T2, Protein disulfide-isomerase A4 (Homo sapiens) (UniProt P13667); experiment: Inhibition of ERp72 (unknown origin) reductase activity assessed as inhibition of PDI/DTT-mediated cleavage of disulfide bond in insulin in the presence of DTT incubated for 40 mins by spectrophotometric analysis; details: dose 100-200 µM, DDE = dose-dependent effect
T2 sequence (whole entry): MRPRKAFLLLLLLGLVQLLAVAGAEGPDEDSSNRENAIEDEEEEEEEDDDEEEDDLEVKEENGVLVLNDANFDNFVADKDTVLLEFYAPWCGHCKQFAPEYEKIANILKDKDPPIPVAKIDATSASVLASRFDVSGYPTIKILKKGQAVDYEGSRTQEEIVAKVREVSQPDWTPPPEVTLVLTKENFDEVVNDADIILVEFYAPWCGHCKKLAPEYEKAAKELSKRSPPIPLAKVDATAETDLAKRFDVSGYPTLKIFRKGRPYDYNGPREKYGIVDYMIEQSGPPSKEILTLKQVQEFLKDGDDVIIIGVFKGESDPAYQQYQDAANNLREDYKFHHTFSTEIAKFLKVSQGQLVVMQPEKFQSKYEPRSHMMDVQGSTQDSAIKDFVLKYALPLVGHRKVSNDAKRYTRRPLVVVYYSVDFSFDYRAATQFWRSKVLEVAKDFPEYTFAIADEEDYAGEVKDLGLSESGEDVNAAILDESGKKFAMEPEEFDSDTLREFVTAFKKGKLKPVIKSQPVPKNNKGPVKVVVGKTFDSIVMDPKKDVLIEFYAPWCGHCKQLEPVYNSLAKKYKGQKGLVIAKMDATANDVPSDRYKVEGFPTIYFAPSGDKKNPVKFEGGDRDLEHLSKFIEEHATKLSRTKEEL

Mus musculus [6] = experiment: Antithrombotic activity in anesthetized ICR mouse model of electrically-induced carotid artery thrombosis assessed as delay in occlusion time at 30 mg/kg, iv; type: functional, organism-based
[7] = molecular target: T3, Protein disulfide-isomerase A3 (Homo sapiens) (UniProt P30101); experiment: Inhibition of ERp57 (unknown origin) reductase activity assessed as inhibition of PDI/DTT-mediated cleavage of disulfide bond in insulin in the presence of DTT incubated for 40 mins by spectrophotometric analysis; details: dose 100-200 µM, DDE = dose-dependent effect
T3 sequence (whole entry): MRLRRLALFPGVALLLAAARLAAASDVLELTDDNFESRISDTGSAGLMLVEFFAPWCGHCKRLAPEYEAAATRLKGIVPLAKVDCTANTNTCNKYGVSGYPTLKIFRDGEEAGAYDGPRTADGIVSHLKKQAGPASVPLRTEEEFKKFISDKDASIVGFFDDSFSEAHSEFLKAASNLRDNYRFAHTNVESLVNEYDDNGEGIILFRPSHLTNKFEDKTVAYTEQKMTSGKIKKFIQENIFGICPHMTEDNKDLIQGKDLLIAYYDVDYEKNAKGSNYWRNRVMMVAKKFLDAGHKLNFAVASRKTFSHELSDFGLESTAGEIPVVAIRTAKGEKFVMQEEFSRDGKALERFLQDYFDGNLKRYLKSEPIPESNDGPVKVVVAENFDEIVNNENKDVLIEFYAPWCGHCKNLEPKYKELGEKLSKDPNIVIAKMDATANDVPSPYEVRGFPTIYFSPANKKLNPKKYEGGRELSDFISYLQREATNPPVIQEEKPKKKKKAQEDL

Mus musculus [8] = experiment: Antithrombotic activity in anesthetized ICR mouse model of electrically-induced carotid artery thrombosis assessed as inhibition of thrombosis formation by measuring increase in bleeding time at 30 mg/kg, iv; type: functional, organism-based
[9] = Toxicity in anesthetized ICR mouse model of electrically-induced carotid artery thrombosis assessed as thrombus formation by measuring blood loss in tail at 30 mg/kg, iv; type: organism-based; details: in vivo
[10] = molecular target: T4, Protein disulfide-isomerase A6 (Homo sapiens) (UniProt Q15084); experiment: Inhibition of ERp5 (unknown origin) reductase activity assessed as inhibition of PDI/DTT-mediated cleavage of disulfide bond in insulin in the presence of DTT incubated for 40 mins by spectrophotometric analysis; details: dose 100-200 µM, DDE = dose-dependent effect
T4 sequence (whole entry): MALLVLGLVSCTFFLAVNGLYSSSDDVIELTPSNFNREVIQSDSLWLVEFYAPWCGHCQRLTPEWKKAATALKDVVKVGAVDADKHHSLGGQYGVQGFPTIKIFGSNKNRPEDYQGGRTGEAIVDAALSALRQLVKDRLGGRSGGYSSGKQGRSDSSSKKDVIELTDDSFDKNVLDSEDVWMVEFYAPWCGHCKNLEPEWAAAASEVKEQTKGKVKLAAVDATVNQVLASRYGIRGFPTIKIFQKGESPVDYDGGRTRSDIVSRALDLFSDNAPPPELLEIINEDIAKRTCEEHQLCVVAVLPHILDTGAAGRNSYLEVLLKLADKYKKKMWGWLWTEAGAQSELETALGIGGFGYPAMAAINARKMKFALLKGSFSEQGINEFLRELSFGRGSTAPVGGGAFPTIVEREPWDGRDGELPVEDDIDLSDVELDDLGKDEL

Compound | Activity [1] | inhibition [2] | Ki [3] | also measured
COc1cc(C=O)ccc1OC(C)=O | Active | Active | 309 µM | 
NC(CO)C(=O)NNCc1ccc(O)c(O)c1O (centres undefined) | Active |  |  | 
O=C(Nc1ccccc1)c1ccccc1O | Active |  |  | 
O=c1c(O)c(-c2ccccc2)oc2ccccc12 | Active |  |  | 
O=c1c(O)c(-c2ccccc2)oc2cc(O)cc(O)c12 [GALANGIN] | Active | Active | 5.9 µM | inhibition [4]: Dde; inhibition [5]: Dde; Activity (Mus musculus [6]): Active; inhibition [7]: Dde; Activity (Mus musculus [8]): Active; Activity [9]: Non-Toxic; inhibition [10]: Dde
O=C(/C=C/c1ccc(O)cc1)c1ccc(O)cc1O [ISOLIQUIRITIGENIN] | Active | Active | 36.1 µM | 
